Values quoted from earlier work, collected in patent US6506736B1, “Method for obtaining and using a combination of a purine nucleotide and nitrogen monoxide donor for treating sexual dysfunction” (priority 1998, dated 2003).

Tests used:
erection = settings: dogs; intravenous injection
erectile dysfunction = settings: 2800 mg L-arginine per day

SMILES | induction of erection (erection) | cases with favorable effect on erectile dysfunction (erectile dysfunction)
Nc1ncnc2c1ncn2[C@@H]1O[C@H](COP(=O)(O)OP(=O)(O)OP(=O)(O)O)[C@@H](O)[C@H]1O [adenosine triphosphate] | induces erection | –
N=C(N)NCCC[C@H](N)C(=O)O [L-arginine] | – | approximately 40%
